Measurements reported in patent US6737383B1, “Herbicidal oxadiazolidines” (priority 1999, dated 2004).

Experiments:
[1] = tested on: bedstraw; test: Test B pre/postemergence bedstraw; assay type: in vivo, Galium aparine
How it was run: (§1)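 Test chemicals in a non-phytotoxic solvent mixture with surfactant were sprayed preemergence onto planted seeds and postemergence onto plants 2 to 18 cm tall (1- to 4-leaf stage). After twelve to sixteen days in a greenhouse, injury was visually rated against untreated controls from 0 (no effect) to 10 (complete control).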

[2] = tested on: surinam grass; test: Test B pre/postemergence surinam grass; assay type: in vivo, Brachiaria decumbens
How it was run: as §1

[3] = tested on: cocklebur; test: Test B pre/postemergence cocklebur; assay type: in vivo, Xanthium strumarium
How it was run: as §1

[4] = tested on: corn; test: Test B pre/postemergence corn; assay type: in vivo, Zea mays
How it was run: as §1

[5] = tested on: giant foxtail; test: Test B pre/postemergence giant foxtail; assay type: in vivo, Setaria faberii
How it was run: as §1

[6] = tested on: pigweed; test: Test B pre/postemergence pigweed; assay type: in vivo, Amaranthus retroflexus
How it was run: as §1

[7] = tested on: rape; test: Test B pre/postemergence rape; assay type: in vivo, Brassica napus
How it was run: as §1

[8] = tested on: soybean; test: Test B pre/postemergence soybean; assay type: in vivo, Glycine max
How it was run: as §1

[9] = tested on: sugar beet; test: Test B pre/postemergence sugar beet; assay type: in vivo, Beta vulgaris
How it was run: as §1

[10] = tested on: velvetleaf; test: Test B pre/postemergence velvetleaf; assay type: in vivo, Abutilon theophrasti
How it was run: as §1

[11] = tested on: wheat; test: Test B pre/postemergence wheat; assay type: in vivo, Triticum aestivum
How it was run: as §1

[12] = tested on: wild oat; test: Test B pre/postemergence wild oat; assay type: in vivo, Avena fatua
How it was run: as §1

[13] = tested on: purple nutsedge; test: Test B pre/postemergence purple nutsedge; assay type: in vivo, Cyperus rotundus
How it was run: as §1

[14] = tested on: rice; test: Test B flood test rice; assay type: in vivo, Oryza sativa
How it was run: (§2)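 Plants were grown to the 2-leaf stage before treatment with test chemical, then held in a greenhouse for twelve to sixteen days. Injury was visually rated against untreated controls on a 0–10 scale, where 0 is no effect and 10 is complete control.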

[15] = tested on: smallflower flatsedge; test: Test B flood test smallflower flatsedge; assay type: in vivo, Cyperus difformis
How it was run: as §2

[16] = tested on: duck salad; test: Test B flood test duck salad; assay type: in vivo, Heteranthera limosa
How it was run: as §2

[17] = Postemergence, Rate 62 g/ha, scale 0 to 10, 0 is no effect, 10 is complete control
[18] = Postemergence, Rate 250 g/ha, scale 0 to 10, 0 no effect, 10 complete control
[19] = Preemergence, Rate 62 g/ha, scale 0 to 10 (0 no effect, 10 complete control)
[20] = Preemergence, Rate 125 g/ha, scale 0 to 10 (0 no effect, 10 complete control)
[21] = Preemergence, Rate 250 g/ha, scale of 0 to 10 where 0 is no effect and 10 is complete control
[22] = Preemergence, Rate 500 g/ha, scale 0 (no effect) to 10 (complete control)
[23] = Rate 125 g/ha, Postemergence, scale 0 to 10, 0 no effect, 10 complete control
[24] = Rate 500 g/ha, Postemergence, scale 0 to 10, 0 no effect, 10 complete control
[25] = Rate 125 g/ha, Postemergence section (flood test species), scale 0 to 10, 0 no effect, 10 complete control
[26] = Rate 500 g/ha, listed under Postemergence (flood test species), scale 0 to 10, 0 no effect, 10 complete control
[27] = flood test, listed under Postemergence, Rate 250 g/ha, scale 0 to 10, 0 no effect, 10 complete control

CCN(C(=O)n1oc(=O)n(-c2c(C)cc(C)cc2C)c1=O)C1CCCCC1 [Compound 63]
Bedstraw plant response rating [1, 17]: 0 | Bedstraw plant response rating [1, 18]: 3 | Bedstraw plant response rating [1, 19]: 0 | Plant response rating, Bedstraw [1, 20]: 0 | Plant response rating, Bedstraw [1, 21]: 0 | Bedstraw plant response rating [1, 22]: 3 | Bedstraw plant response rating [1, 23]: 0 | B. signalgrass plant response rating [2, 17]: 0 | B. signalgrass plant response rating [2, 18]: 0 | B. signalgrass plant response rating [2, 19]: 0 | Plant response rating, B. signalgrass [2, 20]: 0 | Plant response rating, B. signalgrass [2, 21]: 0 | B. signalgrass plant response rating [2, 22]: 0 | B. signalgrass plant response rating [2, 23]: 0 | B. signalgrass plant response rating ([2]; Rate 500 g/ha, Postemergence, scale of 0 to 10 where 0 is no effect and 10 is complete control): 0 | Cocklebur plant response rating [3, 17]: 0 | Cocklebur plant response rating [3, 18]: 0 | Cocklebur plant response rating [3, 19]: 0 | Plant response rating, Cocklebur [3, 20]: 0 | Plant response rating, Cocklebur [3, 21]: 0 | Cocklebur plant response rating [3, 22]: 0 | Cocklebur plant response rating [3, 23]: 0 | Cocklebur plant response rating [3, 24]: 0 | Corn plant response rating [4, 17]: 0 | Corn plant response rating [4, 18]: 2 | Corn plant response rating [4, 19]: 0 | Plant response rating, Corn [4, 20]: 0 | Plant response rating, Corn [4, 21]: 0 | Corn plant response rating [4, 22]: 0 | Corn plant response rating [4, 23]: 0 | Corn plant response rating [4, 24]: 2 | Giant foxtail plant response rating [5, 17]: 0 | Giant foxtail plant response rating [5, 18]: 0 | Giant foxtail plant response rating [5, 19]: 0 | Plant response rating, Giant foxtail [5, 20]: 0 | Plant response rating, Giant foxtail [5, 21]: 2 | Giant foxtail plant response rating [5, 22]: 3 | Giant foxtail plant response rating [5, 23]: 0 | Giant foxtail plant response rating [5, 24]: 2 | Redroot pigweed plant response rating [6, 17]: 0 | Redroot pigweed plant response rating [6, 18]: 0 | Redroot pigweed plant response rating [6, 19]: 0 | Plant response rating, Redroot pigweed [6, 20]: 0 | Plant response rating, Redroot pigweed [6, 21]: 0 | Redroot pigweed plant response rating [6, 22]: 0 | Redroot pigweed plant response rating [6, 23]: 0 | Redroot pigweed plant response rating [6, 24]: 2 | Rape plant response rating [7, 17]: 0 | Rape plant response rating [7, 18]: 0 | Rape plant response rating [7, 19]: 0 | Plant response rating, Rape [7, 20]: 0 | Plant response rating, Rape [7, 21]: 0 | Rape plant response rating [7, 23]: 0 | Rape plant response rating [7, 24]: 0 | Soybean plant response rating [8, 17]: 2 | Soybean plant response rating [8, 18]: 2 | Soybean plant response rating [8, 19]: 0 | Plant response rating, Soybean [8, 20]: 0 | Plant response rating, Soybean [8, 21]: 0 | Soybean plant response rating [8, 22]: 0 | Soybean plant response rating [8, 23]: 2 | Soybean plant response rating [8, 24]: 3 | Sugarbeets plant response rating [9, 17]: 0 | Sugarbeets plant response rating [9, 18]: 2 | Sugarbeets plant response rating [9, 19]: 0 | Plant response rating, Sugarbeets [9, 20]: 0 | Plant response rating, Sugarbeets [9, 21]: 0 | Sugarbeets plant response rating [9, 22]: 0 | Sugarbeets plant response rating [9, 23]: 0 | Sugarbeets plant response rating [9, 24]: 3 | Velvetleaf plant response rating [10, 17]: 3 | Velvetleaf plant response rating [10, 18]: 5 | Velvetleaf plant response rating [10, 19]: 0 | Plant response rating, Velvetleaf [10, 20]: 0 | Plant response rating, Velvetleaf [10, 21]: 2 | Velvetleaf plant response rating [10, 22]: 3 | Velvetleaf plant response rating [10, 23]: 3 | Velvetleaf plant response rating [10, 24]: 5 | Wheat plant response rating [11, 17]: 0 | Wheat plant response rating [11, 18]: 0 | Wheat plant response rating [11, 19]: 0 | Plant response rating, Wheat [11, 20]: 0 | Plant response rating, Wheat [11, 21]: 0 | Wheat plant response rating [11, 22]: 0 | Wheat plant response rating [11, 23]: 0 | Wheat plant response rating [11, 24]: 2 | Wild oats plant response rating [12, 17]: 0 | Wild oats plant response rating [12, 18]: 0 | Wild oats plant response rating [12, 19]: 0 | Plant response rating, Wild oats [12, 20]: 0 | Plant response rating, Wild oats [12, 21]: 0 | Wild oats plant response rating [12, 22]: 0 | Wild oats plant response rating [12, 23]: 0 | Wild oats plant response rating [12, 24]: 2 | Nutsedge plant response rating [13, 17]: 0 | Nutsedge plant response rating [13, 18]: 2 | Nutsedge plant response rating [13, 19]: 0 | Plant response rating, Nutsedge [13, 20]: 0 | Plant response rating, Nutsedge [13, 21]: 0 | Nutsedge plant response rating [13, 22]: 6 | Nutsedge plant response rating [13, 23]: 0 | Nutsedge plant response rating [13, 24]: 2 | Rice plant response rating [14, 17]: 0 | Rice plant response rating [14, 25]: 0 | Rice plant response rating [14, 26]: 0 | Rice plant response rating [14, 27]: 0 | S. Flatsedge plant response rating [15, 17]: 0 | S. Flatsedge plant response rating [15, 25]: 0 | S. Flatsedge plant response rating [15, 26]: 0 | S. Flatsedge plant response rating [15, 27]: 0 | Ducksalad plant response rating [16, 17]: 0 | Ducksalad plant response rating [16, 25]: 0 | Ducksalad plant response rating [16, 26]: 0 | Ducksalad plant response rating [16, 27]: 0
